These are literature values, as cited in patent US20230158084A1, “PROBIOTICS, METABOLITES, AND USES THEREOF” (California Institute of Technology, priority 2018, published 2023).

The conditions of this data set: adult mice; cited from earlier work.

With `C1=NCCCC1` [1-piperideine], the “conversion to 5AV in the brain” value was “rapidly converted to 5AV” and the “entry into the brain” value is reported as “can enter the brain”.
